Data on 1 compound can be found in paper PMC6934184, “Selective DNA-PKcs inhibition extends the therapeutic index of localized radiotherapy and chemotherapy” (The Journal of Clinical Investigation, 2019).

The structures appear in SMILES notation.

In general, inhibition refers to the percentage by which the read-out fell short of the control. Lower therefore signals a weak effect.

The test deals with T1, YES1 (Homo sapiens, UniProt P07947).
T1 construct: purchased Thermo Fisher Scientific (Life Technologies) SelectScreen
T1 sequence (P07947 whole entry): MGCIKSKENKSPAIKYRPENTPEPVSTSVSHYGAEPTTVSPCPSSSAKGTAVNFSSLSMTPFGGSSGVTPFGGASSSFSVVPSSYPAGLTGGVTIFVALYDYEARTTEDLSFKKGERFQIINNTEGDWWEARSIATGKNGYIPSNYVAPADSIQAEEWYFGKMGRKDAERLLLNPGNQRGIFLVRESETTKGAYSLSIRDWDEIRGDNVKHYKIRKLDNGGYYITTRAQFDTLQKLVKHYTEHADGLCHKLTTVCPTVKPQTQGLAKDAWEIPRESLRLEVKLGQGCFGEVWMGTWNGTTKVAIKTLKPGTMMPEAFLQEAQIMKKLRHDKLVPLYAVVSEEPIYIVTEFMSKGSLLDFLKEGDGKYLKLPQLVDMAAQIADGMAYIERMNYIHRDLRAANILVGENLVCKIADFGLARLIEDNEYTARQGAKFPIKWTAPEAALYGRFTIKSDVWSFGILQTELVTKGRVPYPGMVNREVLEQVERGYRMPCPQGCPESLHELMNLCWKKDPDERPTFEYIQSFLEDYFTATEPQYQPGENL
Put plainly: SelectScreen Z'LYTE. It counts as biochemical. The method, boiled down: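 Compound tested in SelectScreen activity assays, Z'LYTE for CSF1R, CDK1/cyclin B and MAP2K6 and Adapta for CAMK1. ATP for CAMK1 was listed as 10, and Km app was used for CSF1R. Results are expressed in percent.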

`CN(C(=O)CN1CCOCC1)c1ccc2sc3c(-c4cccc5c(=O)cc(N6CC7CCC(C6)O7)oc45)cccc3c2c1` [NU5455]: the inhibition at 1 µM was found to be 7.4%.
